# Laboratory results taken from ChEMBL document CHEMBL4406869, “Benzo[b]thiophene-thiazoles as potent anti-Toxoplasma gondii agents: Design, synthesis, tyrosinase/tyrosine hydroxylase inhibitors, molecular docking study, and antioxidant activity” (Eur J Med Chem, 2019).
# pIC50: −log10 of the molar value.
# Tests used:
# [1] = Antioxidant activity assessed as DPPH radical scavenging activity incubated for 30 mins under dark condition by Uv-vis spectrophotometric method; format: functional
# Toxoplasma gondii [2] = assay: (§1) Antiparasitic activity against Toxoplasma gondii ME49 tachyzoites infected in human Hs27 cells assessed as inhibition of parasitic growth preincubated for 24 hrs followed by [5,6-3H]uracil addition and measured after 72 hrs by liquid scintillation counting analysis; format: functional, organism-based
# L929 = assay: Cytotoxicity against mouse L929 cells assessed as reduction in cell viability after 24 hrs by MTT assay; format: cell-based; settings: l929, 24 h
# [3] = Selectivity ratio of CC30 for cytotoxicity against mouse L929 cells to IC50 for antiparasitic activity against Toxoplasma gondii RH infected in human Hs27 cells; format: toxicity, cell-based
# Toxoplasma gondii [4] = assay: (§2) Antiparasitic activity against Toxoplasma gondii RH tachyzoites infected in human Hs27 cells assessed as inhibition of parasitic growth preincubated for 24 hrs followed by [5,6-3H]uracil addition and measured after 72 hrs by liquid scintillation counting analysis; format: functional, organism-based
# [5] = Selectivity ratio of CC30 for cytotoxicity against mouse L929 cells to IC50 for antiparasitic activity against Toxoplasma gondii Me49 infected in human Hs27 cells; format: toxicity, cell-based
# Tyrosinase = biological target: T1, Tyrosinase (Agaricus bisporus, UniProt O42713); assay: Inhibition of mushroom tyrosinase using L-dopa as substrate by spectrophotometric method
# T1 sequence (O42713 whole entry): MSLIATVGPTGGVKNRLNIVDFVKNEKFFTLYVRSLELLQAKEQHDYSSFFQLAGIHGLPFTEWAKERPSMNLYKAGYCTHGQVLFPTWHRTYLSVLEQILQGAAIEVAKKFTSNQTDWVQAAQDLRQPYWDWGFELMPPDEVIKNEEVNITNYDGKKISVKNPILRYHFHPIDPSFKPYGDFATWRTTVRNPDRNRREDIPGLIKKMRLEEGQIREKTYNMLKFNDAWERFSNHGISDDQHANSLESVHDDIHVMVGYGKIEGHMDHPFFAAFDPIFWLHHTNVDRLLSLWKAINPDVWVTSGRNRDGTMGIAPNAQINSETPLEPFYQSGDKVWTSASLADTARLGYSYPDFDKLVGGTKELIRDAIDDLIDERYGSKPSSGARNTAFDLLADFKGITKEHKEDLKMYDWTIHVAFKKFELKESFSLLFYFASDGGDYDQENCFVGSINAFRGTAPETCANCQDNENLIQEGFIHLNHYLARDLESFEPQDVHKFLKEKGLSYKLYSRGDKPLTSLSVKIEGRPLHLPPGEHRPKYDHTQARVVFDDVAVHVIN
# Toxoplasma gondii [6] = assay: as §2, with “reduction in parasite proliferation at 0.78 ug/mL” for “inhibition of parasitic growth”, “analysis relative to control” for “analysis”; format: functional; parameters: scale not given: the % may be the effect or the level left
# Toxoplasma gondii [7] = assay: as §1, with “reduction in parasite proliferation at 12.5 ug/mL” for “inhibition of parasitic growth”, “analysis relative to control” for “analysis”; format: functional; parameters: scale not given: the % may be the effect or the level left
# Toxoplasma gondii [8] = assay: as §2, with “reduction in parasite proliferation at 12.5 ug/mL” for “inhibition of parasitic growth”, “analysis relative to control” for “analysis”; format: functional; parameters: scale not given: the % may be the effect or the level left
# [9] = Cytotoxicity against mouse L929 cells assessed as cell viability at 1.56 ug/ml after 24 hrs by MTT assay relative to control; format: cell-based; settings: read-out: Activity
# Toxoplasma gondii [10] = assay: as §1, with “reduction in parasite proliferation at 100 ug/mL” for “inhibition of parasitic growth”, “analysis relative to control” for “analysis”; format: functional; parameters: scale not given: the % may be the effect or the level left
# Toxoplasma gondii [11] = assay: as §2, with “reduction in parasite proliferation at 100 ug/mL” for “inhibition of parasitic growth”, “analysis relative to control” for “analysis”; format: functional; parameters: scale not given: the % may be the effect or the level left
# [12] = Cytotoxicity against mouse L929 cells assessed as cell viability at 6.25 ug/ml after 24 hrs by MTT assay relative to control; format: cell-based; settings: read-out: Activity
# [13] = Cytotoxicity against mouse L929 cells assessed as cell viability at 100 ug/ml after 24 hrs by MTT assay relative to control; format: cell-based; settings: read-out: Activity
# Toxoplasma gondii [14] = assay: as §1, with “reduction in parasite proliferation at 3.125 ug/mL” for “inhibition of parasitic growth”, “analysis relative to control” for “analysis”; format: functional; parameters: scale not given: the % may be the effect or the level left
# [15] = Cytotoxicity against mouse L929 cells assessed as cell viability at 12.5 ug/ml after 24 hrs by MTT assay relative to control; format: cell-based; settings: read-out: Activity
# Toxoplasma gondii [16] = assay: as §1, with “reduction in parasite proliferation at 25 ug/mL” for “inhibition of parasitic growth”, “analysis relative to control” for “analysis”; format: functional; parameters: scale not given: the % may be the effect or the level left
# Toxoplasma gondii [17] = assay: as §1, with “reduction in parasite proliferation at 1.56 ug/mL” for “inhibition of parasitic growth”, “analysis relative to control” for “analysis”; format: functional; parameters: scale not given: the % may be the effect or the level left
# Toxoplasma gondii [18] = assay: as §1, with “reduction in parasite proliferation at 6.25 ug/mL” for “inhibition of parasitic growth”, “analysis relative to control” for “analysis”; format: functional; parameters: scale not given: the % may be the effect or the level left
# Toxoplasma gondii [19] = assay: as §1, with “reduction in parasite proliferation at 0.78 ug/mL” for “inhibition of parasitic growth”, “analysis relative to control” for “analysis”; format: functional; parameters: scale not given: the % may be the effect or the level left
# [20] = Cytotoxicity against mouse L929 cells assessed as cell viability at 400 ug/ml after 24 hrs by MTT assay relative to control; format: cell-based; settings: read-out: Activity
# [21] = Cytotoxicity against mouse L929 cells assessed as cell viability at 25 ug/ml after 24 hrs by MTT assay relative to control; format: cell-based; settings: read-out: Activity
# [22] = Cytotoxicity against mouse L929 cells assessed as cell viability at 50 ug/ml after 24 hrs by MTT assay relative to control; format: cell-based; settings: read-out: Activity
# Toxoplasma gondii [23] = assay: as §2, with “reduction in parasite proliferation at 1.56 ug/mL” for “inhibition of parasitic growth”, “analysis relative to control” for “analysis”; format: functional; parameters: scale not given: the % may be the effect or the level left
# Toxoplasma gondii [24] = assay: (§3) Antiparasitic activity against Toxoplasma gondii RH tachyzoites infected in human Hs27 cells assessed as reduction in parasite proliferation at 25 ug/mL preincubated for 24 hrs followed by [5,6-3H]uracil addition and measured after 72 hrs by liquid scintillation counting analysis relative to control; format: functional; parameters: scale not given: the % may be the effect or the level left
# Toxoplasma gondii [25] = assay: as §3, with “6.25” for “25”; format: functional; parameters: scale not given: the % may be the effect or the level left
# Toxoplasma gondii [26] = assay: as §3, with “3.125” for “25”; format: functional; parameters: scale not given: the % may be the effect or the level left
# Toxoplasma gondii [27] = assay: as §3, with “0.39” for “25”; format: functional; parameters: scale not given: the % may be the effect or the level left
# [28] = Cytotoxicity against mouse L929 cells assessed as cell viability at 3.125 ug/ml after 24 hrs by MTT assay relative to control; format: cell-based; settings: read-out: Activity
# [29] = Cytotoxicity against mouse L929 cells assessed as cell viability at 0.78 ug/ml after 24 hrs by MTT assay relative to control; format: cell-based; settings: read-out: Activity
# Toxoplasma gondii [30] = assay: as §3, with “ME49” for “RH”, “50” for “25”; format: functional; parameters: scale not given: the % may be the effect or the level left
# Toxoplasma gondii [31] = assay: Antiparasitic activity against Toxoplasma gondii RH tachyzoites infected in human Hs27 cells assessed as reduction in parasite proliferation at 50 ug/mL preincubated for 24 hrs followed by [5,6-3H]uracil addition and measured after 72 hrs by liquid scintillation counting analysis relative to control; format: functional; parameters: scale not given: the % may be the effect or the level left
# [32] = Cytotoxicity against mouse L929 cells assessed as cell viability at 200 ug/ml after 24 hrs by MTT assay relative to control; format: cell-based; settings: read-out: Activity
# [33] = Potency index, ratio of butylated hydroxytoluene IC50 to test compound IC50 for antioxidant activity assessed as DPPH radical scavenging activity; format: functional
smiles,measurement,setting,value
Cc1cc(C(C)(C)C)c(O)c(C(C)(C)C)c1 [BUTYLATED HYDROXYTOLUENE],pIC50,[1],3.75
COc1cc(Cc2cnc(N)nc2N)cc(OC)c1OC [TRIMETHOPRIM],pIC50,Toxoplasma gondii [2],4.41
same,CC30,L929,55.11 µM
same,selectivity ratio,[3],1.32
same,pIC50,Toxoplasma gondii [4],4.38
same,selectivity ratio,[5],1.4
Brc1ccc(-c2csc(N/N=C/c3cc4ccccc4s3)n2)cc1,pIC50,Tyrosinase,3.36
same,CC30,L929,283.56 µM
Ic1ccc(-c2csc(N/N=C/c3cc4ccccc4s3)n2)cc1,pIC50,Tyrosinase,3.37
same,CC30,L929,946.2 µM
Clc1ccc(-c2csc(N/N=C/c3cc4ccccc4s3)n2)cc1,pIC50,Tyrosinase,3.41
same,CC30,L929,1255.05 µM
C(=N\Nc1nc(C23CC4CC(CC(C4)C2)C3)cs1)/c1cc2ccccc2s1,pIC50,Toxoplasma gondii [2],5.06
same,Activity,Toxoplasma gondii [6],92.05%
same,pIC50,[1],4.81
same,Activity,Toxoplasma gondii [7],7.85%
same,pIC50,Tyrosinase,3.48
same,Activity,Toxoplasma gondii [8],58.29%
same,"viability at 24 h, 1.56 ug/ml",[9],105%
same,Activity,Toxoplasma gondii [10],0.53%
same,Activity,Toxoplasma gondii [11],6.32%
same,CC30,L929,1333.46 µM
same,"viability at 24 h, 6.25 ug/ml",[12],101%
same,"viability at 24 h, 100 ug/ml",[13],89%
same,Activity,Toxoplasma gondii [14],25.5%
same,"viability at 24 h, 12.5 ug/ml",[15],96.5%
same,Activity,Toxoplasma gondii [16],5.61%
same,Activity,Toxoplasma gondii [17],49.76%
same,Activity,Toxoplasma gondii [18],9.6%
same,Activity,Toxoplasma gondii [19],101.96%
same,"viability at 24 h, 400 ug/ml",[20],76.8%
same,"viability at 24 h, 25 ug/ml",[21],98.3%
same,"viability at 24 h, 50 ug/ml",[22],90.7%
same,Activity,Toxoplasma gondii [23],101.85%
same,Activity,Toxoplasma gondii [24],46.12%
same,Activity,Toxoplasma gondii [25],83.32%
same,selectivity ratio,[3],25.7
same,Activity,Toxoplasma gondii [26],90.86%
same,Activity,Toxoplasma gondii [27],1.24%
same,pIC50,Toxoplasma gondii [4],4.29
same,"viability at 24 h, 3.125 ug/ml",[28],104%
same,"viability at 24 h, 0.78 ug/ml",[29],107%
same,Activity,Toxoplasma gondii [30],1.17%
same,Activity,Toxoplasma gondii [31],28.7%
same,selectivity ratio,[5],153
same,"viability at 24 h, 200 ug/ml",[32],81.8%
Fc1ccc(-c2csc(N/N=C/c3cc4ccccc4s3)n2)cc1,pIC50,Tyrosinase,3.40
same,CC30,L929,1385.75 µM
Nc1ccc(S(=O)(=O)Nc2ncccn2)cc1 [SULFADIAZINE],pIC50,Toxoplasma gondii [2],1.89
same,CC30,L929,>= 5000 uM
same,selectivity ratio,[3],0.46
same,selectivity ratio,[5],0.39
Cc1ccc(-c2csc(N/N=C/c3cc4ccccc4s3)n2)cc1,pIC50,Tyrosinase,3.33
same,CC30,L929,884.28 µM
O=c1oc2ccccc2cc1-c1csc(N/N=C/c2cc3ccccc3s2)n1,pIC50,[1],4.80
same,Ratio IC50,[33],10
